According to ChEMBL document CHEMBL1201862, “PubChem BioAssay data set” (2004):
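Growth conditions: 96-well plates. Treatment: test compound, 48 hours, 5 concentrations. Analysis: linear interpolation between bracketing concentrations; unreached endpoints set to highest concentration. GI50 = concentration required for 50% inhibition of growth.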 Activity calls are given as the source filed them. Cut-off read from the data, not from the text of the source: active = GI50 up to about 1.1 µM and inactive = higher.

Tests used:
Assay in all cases: growth of human tumour cells (NCI), 48 h
COLO 205 = system: COLO 205
HCT-116 = system: HCT-116
HL-60 = system: HL-60
HOP-62 = system: HOP-62
HOP-92 = system: HOP-92
IGROV-1 = system: IGROV-1
KM-20L2 = system: KM-20L2
M14 = system: M14
MOLT-4 = system: MOLT-4
Malme-3M = system: Malme-3M
OVCAR-8 = system: OVCAR-8
SF-268 = system: SF-268
SF-295 = system: SF-295
SK-MEL-28 = system: SK-MEL-28
SK-OV-3 = system: SK-OV-3
SN12C = system: SN12C
SW-620 = system: SW-620
U-251 = system: U-251
UO-31 = system: UO-31
SF-539 = system: SF-539

Measured: GI50

CC(=O)Oc1c(-c2ccccc2)[nH]c2cc([N+](=O)[O-])c(/C(Cl)=C/c3ccccc3)cc12
inactive: COLO 205 4 µM | HCT-116 3.91 µM | HL-60 2.84 µM | HOP-62 25.9 µM | HOP-92 3.65 µM | IGROV-1 9.46 µM | KM-20L2 3.41 µM | M14 7.73 µM | MOLT-4 2.84 µM | Malme-3M 4.1 µM | OVCAR-8 4.3 µM | SF-268 7.96 µM | SF-295 4.08 µM | SK-MEL-28 6.37 µM | SK-OV-3 26.9 µM | SN12C 4.86 µM | SW-620 8.89 µM | U-251 4.52 µM | UO-31 8 µM

COc1cc2ccc(/C(C)=N/OC(C)=O)cc2cc1OC
inactive: COLO 205 > 100 µM | HCT-116 > 100 µM | HOP-92 51.3 µM | IGROV-1 > 100 µM | KM-20L2 > 100 µM | M14 > 100 µM | MOLT-4 39.7 µM | Malme-3M > 100 µM | OVCAR-8 > 100 µM | SF-268 44.4 µM | SF-295 49.9 µM | SF-539 77.1 µM | SK-MEL-28 > 100 µM | SK-OV-3 > 100 µM | SN12C 49.5 µM | SW-620 > 100 µM | U-251 86.9 µM | UO-31 34.7 µM

CC#COS(=O)(=O)c1ccc(C)cc1
inactive: COLO 205 39.9 µM | HCT-116 37.5 µM | HL-60 26.4 µM | HOP-62 > 100 µM | IGROV-1 > 100 µM | KM-20L2 46.5 µM | M14 35.6 µM | MOLT-4 41.1 µM | Malme-3M 88.3 µM | OVCAR-8 > 100 µM | SF-268 93.3 µM | SF-295 > 100 µM | SF-539 > 100 µM | SK-OV-3 84.3 µM | SN12C > 100 µM | SW-620 42.7 µM | U-251 > 100 µM | UO-31 57.1 µM

CC(=O)OCC1OC(n2c(=S)n(-c3ccccc3)c(=O)c3cc(Br)ccc32)C(OC(C)=O)C1OC(C)=O (configuration not stated)
inactive: COLO 205 > 100 µM | HCT-116 > 100 µM | HOP-62 > 100 µM | HOP-92 > 100 µM | IGROV-1 > 100 µM | KM-20L2 > 100 µM | M14 > 100 µM | MOLT-4 53.8 µM | Malme-3M > 100 µM | OVCAR-8 > 100 µM | SF-268 > 100 µM | SF-295 > 100 µM | SF-539 > 100 µM | SK-MEL-28 > 100 µM | SK-OV-3 > 100 µM | SN12C > 100 µM | SW-620 > 100 µM | U-251 > 100 µM | UO-31 > 100 µM

C=CCC1(CN(C)C)CC/C(=C\c2ccc(OC)cc2)C1=O (configuration not stated)
inactive: COLO 205 46.7 µM | HCT-116 61.5 µM | HL-60 15 µM | HOP-62 > 100 µM | HOP-92 83.6 µM | IGROV-1 > 100 µM | KM-20L2 46.2 µM | M14 74.5 µM | MOLT-4 28.7 µM | Malme-3M 79.3 µM | OVCAR-8 69.8 µM | SF-268 > 100 µM | SF-295 > 100 µM | SF-539 > 100 µM | SK-MEL-28 > 100 µM | SN12C > 100 µM | SW-620 30.9 µM | U-251 89.5 µM | UO-31 89.9 µM

O=C1C=C(N2CCCC2)C=C(N2CCCC2)C1
inactive: COLO 205 > 100 µM | HCT-116 > 100 µM | HL-60 > 100 µM | HOP-62 > 100 µM | HOP-92 > 100 µM | IGROV-1 > 100 µM | KM-20L2 > 100 µM | M14 > 100 µM | MOLT-4 > 100 µM | Malme-3M > 100 µM | OVCAR-8 > 100 µM | SF-268 > 100 µM | SF-295 > 100 µM | SK-MEL-28 > 100 µM | SK-OV-3 > 100 µM | SW-620 > 100 µM | U-251 > 100 µM | UO-31 > 100 µM

COc1ccc(CC(=O)NCCc2ccc(OC)c(OC)c2)cc1Br
inactive: COLO 205 > 100 µM | HL-60 > 100 µM | HOP-62 > 100 µM | HOP-92 > 100 µM | IGROV-1 > 100 µM | KM-20L2 > 100 µM | MOLT-4 > 100 µM | Malme-3M > 100 µM | OVCAR-8 > 100 µM | SF-268 > 100 µM | SF-295 > 100 µM | SF-539 > 100 µM | SK-MEL-28 > 100 µM | SK-OV-3 > 100 µM | SN12C > 100 µM | SW-620 > 100 µM | U-251 > 100 µM | UO-31 > 100 µM

Cc1cccc(NC2=NC(=O)C(CC(=O)Nc3cccc(C)c3C)S2)c1 (configuration not stated)
inactive: COLO 205 > 100 µM | HCT-116 > 100 µM | HL-60 35.9 µM | HOP-62 > 100 µM | HOP-92 21.2 µM | IGROV-1 > 100 µM | KM-20L2 > 100 µM | M14 > 100 µM | MOLT-4 24.3 µM | Malme-3M > 100 µM | OVCAR-8 > 100 µM | SF-268 > 100 µM | SF-295 > 100 µM | SK-MEL-28 > 100 µM | SN12C > 100 µM | SW-620 > 100 µM | U-251 > 100 µM | UO-31 > 100 µM
